Numbers after ± are expanded uncertainties.

The conditions of data set [1]: Crystal; DSC.
Data set [2] is described as follows: Molar enthalpy of transition or fusion. Particulars: Crystal; DSC.

As to `c1ccc2ccccc2c1` [naphthalene], in data set [1], the Triple point temperature amounted to 355.04 ± 2.1 K. In addition, in data set [2], the “Molar enthalpy of transition or fusion” value came out at 4.99 ± 0.478 kcal/mol.

The values above are taken from the NIST ThermoML archive (doi:10.1021/acs.jced.9b00064).
